Each structure is given as a SMILES string. The source made the active and inactive calls. The rule behind the calls is not given here.

The nature of assay [1]: Binding affinity for FK506 binding protein. The following applies: read-out: Ki app.
Assay [2] is filed under the species Mus musculus. The experiment in a line: In vitro immunosuppressive activity by splenocyte mitogenesis assay in spleen cells from BDF1 female mice at 1 pM to 10 uM concentration; not active. The assay is classed as functional, cell-based.
Assay [3] can be described thus: Binding affinity for FK506 binding protein; value ranges from 2-6 nM. Conditions: read-out: Ki app.
The species named for assay [4] is Mus musculus. The experiment in a line: In vitro immunosuppressive activity by splenocyte mitogenesis assay in spleen cells from BDF1 female mice at 1 pM to 10 uM concentration. The assay is classed as functional, cell-based.

For `COC(=O)[C@@H]1CCCCN1C(=O)C(=O)[C@]1(O)O[C@H](C[C@H](OC)/C(C)=C/C=C/C=C\[C@@H](C)C[C@@H](C)C(=O)[C@H](OC)[C@H](O)/C(C)=C/[C@@H](C)C(=O)/C=C/[C@H](C)C[C@@H]2CC[C@@H](O)[C@H](OC)C2)CC[C@H]1C`, in assay [1], the Ki came out at 29 nM. Besides, in assay [2], the outcome was inactive.

In the case of `COCC(=O)[C@H](C)C[C@H](C)\C=C/C=C/C=C(\C)[C@H](C[C@@H]1CC[C@@H](C)[C@](O)(C(=O)C(=O)N2CCCC[C@H]2C(=O)OCc2ccccc2)O1)OC`, the Ki in assay [1] was found to be 15 nM. Also, in assay [2], the result was inactive.

As for `COCC(=O)[C@H](C)C[C@H](C)\C=C/C=C/C=C(\C)[C@H](C[C@@H]1CC[C@@H](C)[C@](O)(C(=O)C(=O)N2CCCC[C@H]2C(=O)O[C@@H](CC(=O)[C@H](C)/C=C(\C)C=O)[C@H](C)C[C@@H]2CC[C@@H](O)[C@H](OC)C2)O1)OC`, the Ki in assay [1] turned out to be 4 nM. Besides, the result in assay [2] was inactive.

Take `CO[C@@H](C[C@@H]1CC[C@@H](C)[C@](O)(C(=O)C(=O)N2CCCC[C@H]2C(=O)OCc2ccccc2)O1)/C(C)=C/C=C/C=C\[C@@H](C)C[C@@H](C)C(=O)[C@H](OC)[C@H](O)/C(C)=C/[C@@H](C)C(=O)/C=C/[C@H](C)C[C@@H]1CC[C@@H](O)[C@H](OC)C1`: the result in assay [2] was inactive. Besides, the Ki in assay [3] is 2 nM.

In turn, `CO[C@H]1C[C@@H]2CC[C@@H](C)[C@@](O)(O2)C(=O)C(=O)N2CCCC[C@H]2C(=O)O[C@H]([C@H](C)C[C@@H]2CC[C@@H](O)[C@H](OC)C2)CC(=O)[C@H](C)/C=C(\C)[C@@H](O)[C@@H](OC)C(=O)[C@H](C)C[C@H](C)/C=C/C=C/C=C/1C` [SIROLIMUS] gave a concentration for half-maximal inhibition (IC50) in assay [4] of 1 nM. Further, the Ki in assay [1] was 0.5 nM.

On to `COCC(=O)[C@H](C)C[C@H](C)\C=C/C=C/C=C(\C)[C@H](C[C@@H]1CC[C@@H](C)[C@](O)(C(=O)C(=O)N2CCCC[C@H]2C(=O)OC/C=C/c2ccccc2)O1)OC`, for which the Ki in assay [1] is 31 nM. Further, in assay [2], the result was inactive.

With `CCC(C)(C)C(=O)C(=O)N1CCCC[C@H]1C(=O)O[C@@H](CC(=O)[C@H](C)/C=C(\C)[C@@H](O)[C@@H](OC)C(=O)[C@H](C)C[C@H](C)\C=C/C=C/C=C(\C)[C@H](C[C@@H]1CC[C@@H](C)C(=O)O1)OC)[C@H](C)C[C@@H]1CC[C@@H](O)[C@H](OC)C1`, the Ki in assay [1] stood at 20 nM. In assay [2], the result was inactive.

As for `COCC(=O)[C@H](C)C[C@H](C)\C=C/C=C/C=C(\C)[C@H](C[C@@H]1CC[C@@H](C)[C@](O)(C(=O)C(=O)N2CCCC[C@H]2C(=O)OC(C)C)O1)OC`, the Ki in assay [1] is 51 nM. Further, in assay [2], the result was inactive.

Consider `COCC(=O)[C@H](C)C[C@H](C)\C=C/C=C/C=C(\C)[C@H](C[C@@H]1CC[C@@H](C)[C@](O)(C(=O)C(=O)N2CCCC[C@H]2C(=O)OC)O1)OC`, for which the Ki in assay [1] turned out to be 12 nM. Moreover, in assay [2], the result was inactive.

As to `COCC(=O)[C@H](C)C[C@H](C)\C=C/C=C/C=C(\C)[C@H](C[C@@H]1CC[C@@H](C)[C@](O)(C(=O)C(=O)N2CCCC[C@H]2C(=O)OCCCc2ccc(OC)c(OC)c2)O1)OC`, the Ki in assay [1] turned out to be 43 nM. For the same molecule, the result in assay [2] was inactive.

Take `COCC(=O)[C@H](C)C[C@H](C)\C=C/C=C/C=C(\C)[C@H](C[C@@H]1CC[C@@H](C)[C@](O)(C(=O)C(=O)N2CCCC[C@H]2C(=O)OC(C)c2ccccc2)O1)OC` (stereo partly drawn): the Ki in assay [1] stood at 41 nM. Moreover, the outcome in assay [2] was inactive.

On to `COCC(=O)[C@H](C)C[C@H](C)\C=C/C=C/C=C(\C)[C@H](C[C@@H]1CC[C@@H](C)[C@](O)(C(=O)C(=O)N2CCCC[C@H]2C(=O)O)O1)OC`, for which, in assay [1], the Ki worked out at 500 nM. Moreover, in assay [2], the result was inactive.

On to `COCC(=O)[C@H](C)C[C@H](C)\C=C/C=C/C=C(\C)[C@H](C[C@@H]1CC[C@@H](C)[C@](O)(C(=O)C(=O)N2CCCC[C@H]2C(=O)NCc2ccccc2)O1)OC`, for which, in assay [1], the Ki is 110 nM. Moreover, the outcome in assay [2] was inactive.

As to `COCC(=O)[C@H](C)C[C@H](C)\C=C/C=C/C=C(\C)[C@H](C[C@@H]1CC[C@@H](C)[C@](O)(C(=O)C(=O)N2CCCC[C@H]2C(=O)NCCCc2ccccc2)O1)OC`, the Ki in assay [1] stood at 32 nM. The outcome in assay [2] was inactive.

As a reminder, the IC50 is the concentration at which inhibition is half-maximal. A lower IC50 goes with greater potency in that assay.
